The values that follow come from patent US12134620B2 (ARAXES PHARMA LLC, priority 2018, dated 2024).

This test concerns the target T1, KRAS G12C 1-169, his-tagged protein, GDP-loaded (Homo sapiens, UniProt P01116, G12C).
T1 construct: KRAS G12C 1-169, his-tagged protein, GDP-loaded; His tag
Kind of test: Biochemical assay: covalent modification of KRAS G12C, analysed by mass spectrometry (RapidFire/TOF or Q-Exactive). Also: time not given here. Conditions: Modification activity, modification percentage from MS peak intensities. It is filed as binding. The essentials:
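Covalent adduct formation was quantified by intact-protein mass spectrometry, either TOF or C4 LC-Q Exactive Plus, as percent modified versus unmodified protein after deconvolution. Compounds at 8 or 32 μM final were incubated with 0.5 or 2 μM GDP-bound KRAS G12C(1-169)-His in Hepes/NaCl/MgCl2 buffer before acid quench.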
On to `C=CC(=O)N1CC2(CCN(c3ncnc(-c4c(C)ccc5cn[nH]c45)c3C#N)CC2)C1` [Compound I-237, 4-(2-acryloyl-2,7-diazaspiro[3.5]ononan-7-yl)-6-(6-methyl-1H-indazol-7-yl)pyrimidine-5-carbonitrile], for which the Binding % entry was “+ (+ indicates binding activity greater than 0% and up to 50%)”.
Regarding `C=CC(=O)N1CC2(CCN(c3c(OCc4ccccn4)ncc(-c4c(C)ccc5cnn(C)c45)c3C#N)C2)C1` [Compound I-175, 3-(2-acryloyl-2,6-diazaspiro[3.4]octan-6-yl)-5-(1,6-dimethyl-1H-indazol-7-yl)-2-(pyridin-2-ylmethoxy)isonicoti-nonitrile], the Binding % result is “++ (++ indicates binding activity from 50 to 85%)”.
The result for `C=CC(=O)N1CC2(CCN(c3nc(N4CCOCC4)nc(-c4c(C)ccc5[nH]ncc45)c3C#CC3CC3)C2)C1` [Compound I-190, 1-(6-(5-(cyclopropylethynyl)-6-(5-methyl-1H-indazol-4-yl)-2-morpholinopyrimidin-4-yl)-2,6-diazaspiro[3.4]octan-2-yl)prop-2-en-1-one] reads “+ (+ indicates binding activity greater than 0% and up to 50%)”.
Consider `C=CC(=O)N1CC2(CCN(c3nccc(-c4c(C)ccc5[nH]ncc45)n3)C2)C1` [Compound I-275, 1-(6-(4-(5-methyl-1H-indazol-4-yl)pyrimidin-2-yl)-2,6-diazaspiro[3.4]octan-2-yl)prop-2-en-1-one], for which the Binding % result is “+ (+ indicates binding activity greater than 0% and up to 50%)”.
Under `C=CC(=O)N1CC2(CCN(c3ncnc(Oc4cccc(C(N)=O)c4)c3C#N)C2)C1` [Compound I-255, 3-((6-(2-acryloyl-2,6-diazaspiro[3.4]octan-6-yl)-5-cyanopyrimidin-4-yl)oxy)benzamide] stands “+ (+ indicates binding activity greater than 0% and up to 50%)”; under `C=CC(=O)N1CC2(CCN(c3nc(OC[C@@H]4CCCN4C)nc(-n4ccnc4)c3C#N)C2)C1` [Compound I-31, (S)-4-(2-acryloyl-2,6-diazaspiro[3.4]octan-6-yl)-6-(1H-imidazol-1-yl)-2-((1-methylpyrrolidin-2-yl)methoxy)pyrimidine-5-carbonitrile], “+ (+ indicates binding activity greater than 0% and up to 50%)”; under `C=CC(=O)N1CC2(CCN(c3nc(N4CCOCC4)nc(-c4c(C)ccc5[nH]nc(N)c45)c3C#N)C2)C1` [Compound I-33, 4-(2-acryloyl-2,6-diazaspiro[3.4]octan-6-yl)-6-(3-amino-5-methyl-1H-indazol-4-yl)-2-morpholinopyrimidine-5-carbonitrile], “+++ (+++ indicates binding activity greater than 85%)”.
Take `C=CC(=O)N1CC2(CCN(c3nc(OC[C@@H]4CCCN4C)nc(-c4cccc5c4OC(F)(F)O5)c3C#N)C2)C1` [Compound I-17, (S)-4-(2-acryloyl-2,6-diazaspiro[3.4]octan-6-yl)-6-(2,2-difluorobenzo[d][1,3]dioxol-4-yl)-2-((1-methylpyrrolidin-2-yl)methoxy)pyrimidine-5-carbonitrile]: the Binding % entry is “+ (+ indicates binding activity greater than 0% and up to 50%)”.
Under `C=CC(=O)N1CC2(CCN(c3nc(OCc4cnc(OC)nc4)nc(-c4c(C)ccc5[nH]ncc45)c3C#N)C2)C1` [Compound I-149, 4-(2-acryloyl-2,6-diazaspiro[3.4]octan-6-yl)-2-((2-methoxypyrimidin-5-yl)methoxy)-6-(5-methyl-1H-indazol-4-yl)pyrimidine-5-carbonitrile] stands “+++ (+++ indicates binding activity greater than 85%)”.
Under `C=CC(=O)N1CC2(CCN(c3nc(OC[C@@H]4CCCN4C)nc(-c4ccccc4C(F)(F)F)c3C#N)C2)C1` [Compound I-16, (S)-4-(2-acryloyl-2,6-diazaspiro[3.4]octan-6-yl)-2-((1-methylpyrrolidin-2-yl)methoxy)-6-(2-(trifluoromethyl)phe-nyl)pyrimidine-5-carbonitrile] stands “+ (+ indicates binding activity greater than 0% and up to 50%)”.
The result for `C/C=C/C(=O)N1CC2(CCN(c3nc(OCc4ccccn4)nc(-c4c(C)ccc5[nH]ncc45)c3C#N)C2)C1` [Compound I-98, (E)-4-(2-(but-2-enoyl)-2,6-diazaspiro[3.4]octan-6-yl)-6-(5-methyl-1H-indazol-4-yl)-2-(pyridin-2-ylmethoxy)pyrimidine-5-carbonitrile] reads “+ (+ indicates binding activity greater than 0% and up to 50%)”; that for `C=CC(=O)N1CC2(CCN(c3nc(N4CCC(N5CCN(C6CC6)CC5)CC4)nc(-c4c(C)ccc5cnn(C)c45)c3C#N)C2)C1` [Compound I-216, 4-(2-acryloyl-2,6-diazaspiro[3.4]octan-6-yl)-2-(4-(4-cyclopropylpiperazin-1-yl)piperidin-1-yl)-6-(1,6-dimethyl-1H-indazol-7-yl)pyrimidine-5-carbonitrile], “++ (++ indicates binding activity from 50 to 85%)”.
As to `C=CC(=O)N1CC2(CCN(c3nc(N4CCC(N5CCN(C)C6(CC6)C5)CC4)nc(-c4c(C)ccc5cnn(C)c45)c3C#N)C2)C1` [Compound I-197, 4-(2-acryloyl-2,6-diazaspiro[3.4]octan-6-yl)-6-(1,6-dimethyl-1H-indazol-7-yl)-2-(4-(4-methyl-4,7-diazaspiro[2.5]octan-7-yl)piperidin-1-yl)pyrimidine-5-carbonitrile], the Binding % entry was “+++ (+++ indicates binding activity greater than 85%)”.
On to `C=CC(=O)N1CC2(CCN(c3nc(OCCc4ccccn4)nc(-c4c(C)ccc5[nH]ncc45)c3C#N)CC2)C1` [Compound I-75, 4-(2-acryloyl-2,7-diazaspiro[3.5]nonan-7-yl)-6-(5-methyl-1H-indazol-4-yl)-2-(2-(pyridin-2-yl)ethoxy)pyrimidine-5-carbonitrile], for which the Binding % entry was “++ (++ indicates binding activity from 50 to 85%)”.
For `C=CC(=O)N1CC2(CCN(c3ncnc(-c4c(C)ccc5[nH]ncc45)c3C#N)CC2)C1` [Compound I-236, 4-(2-acryloyl-2,7-diazaspiro[3.5]nonan-7-yl)-6-(5-methyl-1H-indazol-4-yl)pyrimidine-5-carbonitrile], the Binding % entry was “+ (+ indicates binding activity greater than 0% and up to 50%)”.
Under `C=CC(=O)N1CC2(CCN(c3ncnc(N4CCC[C@H]4C(N)=O)c3C#N)C2)C1` [Compound I-248, (S)-1-(6-(2-acryloyl-2,6-diazaspiro[3.4]octan-6-yl)-5-cyanopyrimidin-4-yl)pyrrolidine-2-carboxamide] stands “+ (+ indicates binding activity greater than 0% and up to 50%)”; under `C=CC(=O)N1CC2(CCN(c3nc(OCc4ccnnc4)nc(-c4c(C)ccc5cnn(C)c45)c3C#N)C2)C1` [Compound I-164, 4-(2-acryloyl-2,6-diazaspiro[3.4]octan-6-yl)-6-(1,6-dimethyl-1H-indazol-7-yl)-2-(pyridazin-4-ylmethoxy)pyrimidine-5-carbonitrile], “++ (++ indicates binding activity from 50 to 85%)”.
Under `C=CC(=O)N1CC2(CCN(c3nc(N4CCCC4)nc(-c4c(C)ccc5[nH]nc(N)c45)c3C#N)C2)C1` [Compound I-34, 4-(2-acryloyl-2,6-diazaspiro[3.4]octan-6-yl)-6-(3-amino-5-methyl-1H-indazol-4-yl)-2-(pyrrolidin-1-yl)pyrimidine-5-carbonitrile] stands “+++ (+++ indicates binding activity greater than 85%)”; under `C=CC(=O)N1CC2(CCN(c3nc(N4CCC5(CC4)CN(C)C5)nc(-c4c(C)ccc5[nH]ncc45)c3C#N)C2)C1` [Compound I-112, 4-(2-acryloyl-2,6-diazaspiro[3.4]octan-6-yl)-6-(5-methyl-1H-indazol-4-yl)-2-(2-methyl-2,7-diazaspiro[3.5]nonan-7-yl)pyrimidine-5-carbonitrile], “+++ (+++ indicates binding activity greater than 85%)”.
In the case of `C/C=C/C(=O)N1CC2(CCN(c3nc(OC[C@@H]4CCCN4C)nc(-c4c(C)ccc5[nH]ncc45)c3C#N)C2)C1` [Compound I-105, 4-(2-((E)-but-2-enoyl)-2,6-diazaspiro[3.4]octan-6-yl)-6-(5-methyl-1H-indazol-4-yl)-2-(((S)-1-methylpyrrolidin-2-yl)methoxy)pyrimidine-5-carbonitrile], the Binding % result is “+ (+ indicates binding activity greater than 0% and up to 50%)”.
Turning to `C/C=C/C(=O)N1CC2(CCN(c3nc(N4CCOCC4)nc(-c4c(C)ccc5[nH]ncc45)c3C#N)C2)C1` [Compound I-83, (E)-4-(2-(but-2-enoyl)-2,6-diazaspiro[3.4]octan-6-yl)-6-(5-methyl-1H-indazol-4-yl)-2-morpholinopyrimidine-5-carbonitrile], the Binding % entry was “+ (+ indicates binding activity greater than 0% and up to 50%)”.
As to `C=CC(=O)N1CC2(CCN(c3nc(N4CCOCC4)nc(-c4c(C)ccc5[nH]nc(C)c45)c3C#N)C2)C1` [Compound I-78, 4-(2-acryloyl-2,6-diazaspiro[3.4]octan-6-yl)-6-(3,5-dimethyl-1H-indazol-4-yl)-2-morpholinopyrimidine-5-carbonitrile], the Binding % entry is recorded as “+++ (+++ indicates binding activity greater than 85%)”.
In the case of `C=CC(=O)N1CC2(CCN(c3nc(N4CCOCC4)nc(-c4c(C)ccc5[nH]ncc45)c3OC)C2)C1` [Compound I-121, 1-(6-(5-methoxy-6-(5-methyl-1H-indazol-4-yl)-2-morpholinopyrimidin-4-yl)-2,6-diazaspiro[3.4]octan-2-yl)prop-2-en-1-one], the Binding % result was “++ (++ indicates binding activity from 50 to 85%)”.
With `C=CC(=O)N1CC2(CCN(c3nc(OCc4ncccn4)nc(-c4c(C)ccc5cnn(C)c45)c3C#N)C2)C1` [Compound I-168, 4-(2-acryloyl-2,6-diazaspiro[3.4]octan-6-yl)-6-(1,6-dimethyl-1H-indazol-7-yl)-2-(pyrimidin-2-ylmethoxy)pyrimidine-5-carbonitrile], the Binding % entry is “+ (+ indicates binding activity greater than 0% and up to 50%)”.
